Data from US20200345006A1, “METHODS OF REDUCING NEMATODE INFECTION IN PLANTS” (The University of North Carolina at Charlotte, priority 2019, published 2020).

What was measured:
[1] = test system: H. glycines second-stage nematodes (J2), races 2 (HG type 1.2.5.7) and 5 (HG type 2.5.7); experiment: whole plant or invertebrate; details: for nematocidal activity against races 2 and 5: 24 hours incubation, 0.5 and 1.0 mg/ml, overall statement; for mortality at 500 µg/mL / mortality at 1000 µg/mL: Heterodera glycines, 24 h, read-out: J2 mortality
Experimental: Determination of the nematocidal activity of phenolic compounds was conducted as previously described. Briefly, approximately 400 freshly hatched J2s in 900 μl of water were added to each well of a 24-well Microtest™ tissue culture plate, and 100 μl of the compound test solution was added at concentrations of 5 mg/ml and 10 mg/ml. Therefore, the final concentration of each compound in each suspension is 0.5 mg/ml and 1.0 mg/ml. Control samples received 100 μl of water. Three replicates per concentration were used. The plate was covered with the original solid lid and wrapped with Parafilm®, and samples were kept at 27° C. in an incubator. After 24 hours of incubation, dead and alive J2 nematodes were counted using a stereo microscope Leica M165 FC (×40) to evaluate mortality rates. J2 mortality can be estimated according to the mean percentage of dead J2 in the total number of J2 (alive and dead). Nematodes are considered dead when no movement was observed during 3 seconds of observation. The compounds 3,4-dihydroxybenzoic acid and 4-hydroxybenzaldehyde are commercially available at Sigma-Aldrich, USA.

[2] = test system: root-knot nematode (Meloidogyne incognita); details: known from prior reports; cited from earlier work
nematode = details: general statement; cited from earlier work

SMILES | nematocidal activity against races 2 and 5 [1] | mortality at 500 µg/mL [1] | mortality at 1000 µg/mL [1] | nematocidal activity against root-knot nematode [2] | direct nematocidal activity (nematode)
O=C(O)c1ccc(O)c(O)c1 [3,4-dihydroxybenzoic acid] | demonstrated nematocidal activity | 19% | 30% | showing nematocidal activity | 
O=Cc1ccc(O)cc1 [4-hydroxybenzaldehyde] | demonstrated nematocidal activity | 68% | 96% |  | 
O=C(O)c1ccccc1O [SA, salicylic acid] |  |  |  |  | no direct nematocidal activity
